Measured values taken from publication PMC9730589, “Characterization of a novel AA3_1 xylooligosaccharide dehydrogenase from Thermothelomyces myriococcoides CBS 398.93” (Biotechnology for Biofuels and Bioproducts, 2022).

system: T1, TmXdhA; experiment: spectrophotometric reduction of […],4-benzoquinone at […] nm, Michaelis-Menten fit; type: biochemical, Thermothelomyces myriococcoides; conditions: 1 mM 1,4-benzoquinone, 50 mM ammonium acetate pH 5.5, 30 °C
T1 construct: native full gene from cDNA (578 residues, GMC dehydrogenase domain only, no cytochrome or CBM1); ORF start MQTASKL by primer; SEC-purified, contaminated with an A. niger hydrolase (A0A370CB09)

Km [µM]	Structure (SMILES)
130 ± 10	OC1OC[C@@H](O[C@@H]2OC[C@@H](O[C@@H]3OC[C@@H](O[C@@H]4OC[C@@H](O)[C@H](O)[C@H]4O)[C@H](O)[C@H]3O)[C@H](O)[C@H]2O)[C@H](O)[C@H]1O (stereo partly drawn) [X4, Xylotetraose]
110 ± 10	OC1OC[C@@H](O[C@@H]2OC[C@@H](O[C@@H]3OC[C@@H](O)[C@H](O)[C@H]3O)[C@H](O)[C@H]2O)[C@H](O)[C@H]1O (stereo partly drawn) [X3, Xylotriose]
160 ± 10	OC1OC[C@@H](O[C@@H]2OC[C@@H](O)[C@H](O)[C@H]2O)[C@H](O)[C@H]1O (stereo partly drawn) [X2, Xylobiose]

The next lines start with the compound.

Structure (SMILES)	Km [µM]
OC[C@H]1O[C@@H](O[C@H]2[C@H](O)[C@@H](O)[C@H](O[C@H]3[C@H](O)[C@@H](O)[C@H](O[C@H]4[C@H](O)[C@@H](O)C(O)O[C@@H]4CO)O[C@@H]3CO)O[C@@H]2CO)[C@H](O)[C@@H](O)[C@@H]1O (stereo partly drawn) [C4, Cellotetraose]	530 ± 40
OC[C@H]1O[C@@H](O[C@H]2[C@H](O)[C@@H](O)[C@H](O[C@H]3[C@H](O)[C@@H](O)C(O)O[C@@H]3CO)O[C@@H]2CO)[C@H](O)[C@@H](O)[C@@H]1O (stereo partly drawn) [C3, Cellotriose]	430 ± 40
OC[C@H]1O[C@@H](O[C@H]2[C@H](O)[C@@H](O)C(O)O[C@@H]2CO)[C@H](O)[C@@H](O)[C@@H]1O (stereo partly drawn) [C2, Cellobiose]	360 ± 40
